We go through one compound from article PMC12005767 (Advanced Science, 2025).

Like-named read-outs stand apart in the source and are kept apart here.

In general, IC50 refers to the concentration that gives 50% inhibition. Low readings indicate greater potency, high ones weaker potency. A word on the AUC(0-inf): it is total exposure, with the tail of the curve extrapolated. Higher therefore signals high exposure. The term Cmax denotes the maximum level reached in the sampled fluid or tissue. The half-life is how long it takes for the measured level to halve. Low values mean rapid decline, high ones slow decline. By bioavailability is commonly meant the share of a dose that reaches the circulation, judged against a reference dose that is usually intravenous.

The target of one data set is T1, HDAC1 (Homo sapiens, UniProt Q13547).
T1 construct: purchased BPS Bioscience
Kind of data set: In vitro HDACs inhibition fluorescence assay, HDAC1. Type of data set: biochemical. As to conditions: mean ± SEM. On the procedure:
(§1) In Vitro HDACs Inhibition Fluorescence Assay: For the inhibitory activity against HDAC1‐10, enzymes were also procured from BPS Bioscience. The in vitro […] inhibition assays were conducted following the established method described previously.^[ [45] ^] The working concentrations of HDAC1‐10 were 4 × 10^−9 M. The fluorogenic substrate of HDAC1, 2, 3, and 6 was Boc‐Lys (acetyl)‐AMC, and the substrate of HDAC4, 5, 7, 8, 9, and 10 was Boc‐Lys (trifluoroacetyl) AMC. The developer solution consists of 30 mg mL^−1 trypsin and 5 × 10^−6 M TSA. A standing period of 30 min was sufficient before assessing the fluorescence intensity.

A further data set concerns the target T2, HDAC5 (Homo sapiens, UniProt Q9UQL6).
T2 construct: purchased BPS Bioscience
Nature of the data set: In vitro HDACs inhibition fluorescence assay, HDAC5. Type of data set: biochemical. As to conditions: mean ± SEM. The protocol: as §1

The next data set deals with T3, HDAC10 (Homo sapiens, UniProt Q969S8).
T3 construct: purchased BPS Bioscience
Kind of data set: In vitro HDACs inhibition fluorescence assay, HDAC10. In kind it is biochemical. The note with it: mean ± SEM. On the procedure:
as §1

Data set [1] is described as follows: Pharmacokinetic study in ICR mice (i.v. and p.o.). In kind it is in vivo. The note with it: male, mouse, plasma; for MRT inf: read-out: MRT0-inf. On the procedure: Pharmacokinetics study was performed by Medicilon Preclinical Research (Shanghai) LLC. Male ICR mice, which were purchased from Sino‐British SIPPR Lab Animal Ltd., Shanghai (25–30 g, 14 weeks of age), were fasted overnight before administration and resumed food 6 h after initial plasma sampling. Compound was dissolved in solution containing 10% DMAC, 40% PEG‐400, and 50% water and was delivered to three animals by intravenous bolus injection (i.v.) and oral gavage (p.o.) at a dose of 5 and 20 mg kg^−1 with a volume of 5 and 10 mL kg^−1, respectively. Blood samples were collected at the following time points: 5, 15, 30 min and 1, 2, 4, 6, 8, and 24 h post dose administration. The blood samples were taken via submandibular vein, 30 µL/time point.
Sample were placed in tubes containing K2‐EDTA and stored on ice until centrifuged. The blood samples were centrifuged at 6800 g for 6 min at 2–8 °C within 1 h after collected and stored frozen at ≈−80 °C. A 20 µL plasma sample was treated with 400 µL of methanol containing 10 ng mL^−1 IS to precipitate the protein. The mix was then vortexed for a minute and centrifuged at 18 000 g for 7 min. The resulting supernatant (400 µL) was transferred to a 96‐well plate, and an injection of 1 µL of this supernatant was used for the LC‐MS/MS analysis. The animal protocols used in this study were approved by the Preclinical R&D Unit of Medicilon Institutional Animal Care and Use Committee (IACUC) (26030‐21002) and operated in accordance with the Guide for the Care and Use of Laboratory Animals published by the National Institutes of Health (NIH).

The test system of a further data set is ICR mice. Nature of the data set: Subacute toxicity study in ICR mice. Type of data set: in vivo. On the procedure:
For evaluation of subacute toxicity, ICR mice were divided into two groups (n = 8 per group (4M, 4F)). The B6 was prepared in vehicle (10% DMSO and 90% 0.5% HPMC aqueous solution) to administer once daily, by oral gavage for 30 d in the treatment groups. To the control groups, vehicle was administered orally. The animals were monitored for clinical and behavioral symptoms such as body weight, diarrhea, immobility, and mortality during the first day and thereafter for 30 d.

Where [2] appears, read: ICR, po, 20 mg/kg, p.o. at 20 mg/kg.
Where [3] appears, read: 50 mg kg^−1 p.o. daily for 30 d, vs control group.

T3 sequence (Q969S8 whole entry): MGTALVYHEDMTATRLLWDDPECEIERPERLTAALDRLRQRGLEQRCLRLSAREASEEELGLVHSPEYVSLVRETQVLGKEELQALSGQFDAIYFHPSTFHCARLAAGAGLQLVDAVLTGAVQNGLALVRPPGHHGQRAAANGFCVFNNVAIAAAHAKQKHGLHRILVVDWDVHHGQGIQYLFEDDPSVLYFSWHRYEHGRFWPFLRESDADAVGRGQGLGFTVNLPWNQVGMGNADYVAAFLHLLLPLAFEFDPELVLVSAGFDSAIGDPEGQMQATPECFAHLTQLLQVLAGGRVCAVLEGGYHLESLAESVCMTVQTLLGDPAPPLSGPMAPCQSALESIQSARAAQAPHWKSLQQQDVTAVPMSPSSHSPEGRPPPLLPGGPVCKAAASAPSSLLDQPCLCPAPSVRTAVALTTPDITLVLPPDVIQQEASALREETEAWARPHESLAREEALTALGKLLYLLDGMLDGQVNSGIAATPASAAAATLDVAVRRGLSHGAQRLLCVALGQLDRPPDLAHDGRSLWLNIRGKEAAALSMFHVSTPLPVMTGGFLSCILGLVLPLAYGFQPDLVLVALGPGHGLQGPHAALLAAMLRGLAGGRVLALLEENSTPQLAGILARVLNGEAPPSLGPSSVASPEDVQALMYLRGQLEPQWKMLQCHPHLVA
T2 sequence (Q9UQL6 whole entry): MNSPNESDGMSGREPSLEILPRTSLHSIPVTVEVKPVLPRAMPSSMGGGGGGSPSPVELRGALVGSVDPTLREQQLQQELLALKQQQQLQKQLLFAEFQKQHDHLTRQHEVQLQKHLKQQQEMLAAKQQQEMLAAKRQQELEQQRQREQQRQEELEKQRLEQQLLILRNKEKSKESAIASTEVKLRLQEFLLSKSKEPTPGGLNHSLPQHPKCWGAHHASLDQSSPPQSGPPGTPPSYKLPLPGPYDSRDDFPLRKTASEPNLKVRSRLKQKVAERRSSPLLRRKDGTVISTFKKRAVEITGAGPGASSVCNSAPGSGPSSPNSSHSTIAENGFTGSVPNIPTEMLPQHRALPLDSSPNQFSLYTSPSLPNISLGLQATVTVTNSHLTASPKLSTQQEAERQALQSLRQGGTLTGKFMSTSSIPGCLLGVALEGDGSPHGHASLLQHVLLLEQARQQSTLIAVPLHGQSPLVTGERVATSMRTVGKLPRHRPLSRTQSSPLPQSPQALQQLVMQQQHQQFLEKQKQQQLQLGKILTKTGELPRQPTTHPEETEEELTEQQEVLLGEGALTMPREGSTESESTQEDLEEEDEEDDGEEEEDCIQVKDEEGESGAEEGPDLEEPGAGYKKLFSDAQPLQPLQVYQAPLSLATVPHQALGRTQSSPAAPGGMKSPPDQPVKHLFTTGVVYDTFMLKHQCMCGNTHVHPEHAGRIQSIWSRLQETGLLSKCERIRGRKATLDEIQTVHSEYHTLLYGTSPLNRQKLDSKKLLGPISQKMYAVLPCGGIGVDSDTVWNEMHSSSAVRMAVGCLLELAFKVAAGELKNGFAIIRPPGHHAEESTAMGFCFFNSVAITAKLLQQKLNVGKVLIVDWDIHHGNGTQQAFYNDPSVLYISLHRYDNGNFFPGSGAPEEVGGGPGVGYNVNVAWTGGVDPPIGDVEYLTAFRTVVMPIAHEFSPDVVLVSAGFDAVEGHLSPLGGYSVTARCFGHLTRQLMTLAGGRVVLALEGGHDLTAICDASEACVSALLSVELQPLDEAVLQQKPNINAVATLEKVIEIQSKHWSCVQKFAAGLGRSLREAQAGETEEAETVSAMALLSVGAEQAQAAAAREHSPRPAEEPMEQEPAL
T1 sequence (Q13547 whole entry): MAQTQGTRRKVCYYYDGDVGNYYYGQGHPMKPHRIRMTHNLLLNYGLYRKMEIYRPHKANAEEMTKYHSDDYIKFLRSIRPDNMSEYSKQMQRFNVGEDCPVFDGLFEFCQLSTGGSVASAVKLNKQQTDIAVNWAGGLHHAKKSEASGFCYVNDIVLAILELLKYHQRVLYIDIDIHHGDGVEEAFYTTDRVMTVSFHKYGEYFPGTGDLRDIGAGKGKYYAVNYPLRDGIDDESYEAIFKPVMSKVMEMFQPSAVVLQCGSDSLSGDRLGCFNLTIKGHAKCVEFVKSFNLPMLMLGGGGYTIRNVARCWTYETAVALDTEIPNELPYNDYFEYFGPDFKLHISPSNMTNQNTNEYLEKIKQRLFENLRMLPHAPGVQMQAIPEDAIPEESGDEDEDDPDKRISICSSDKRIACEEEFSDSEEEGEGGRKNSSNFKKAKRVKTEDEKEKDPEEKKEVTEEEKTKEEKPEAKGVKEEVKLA

Turning to `CCCCCOCCCCCNNC(=O)c1ccc(CNC(=O)c2ccccc2)cc1` [B6], the IC50 against HDAC1 is over 10 µM. Besides, at HDAC5, the IC50 is over 10 µM. In addition, the IC50 against HDAC10 is over 10 µM. In data set [1] (setting [2]), this compound registered an AUC(0-inf) of 3480 ng·h/mL and a Cmax of 2610 ng/mL. In data set [1] (iv, i.v. at 5 mg/kg), the half-life was 3.8 h, the clearance turned out to be 39.5 ± 13.5 mL/min/kg and the MRT inf worked out at 0.23 ± 0.02 h. For the same compound, in data set [1] (oral, p.o. at 20 mg/kg vs i.v. at 5 mg/kg, read-out: oral bioavailability (F%)), the bioavailability came to 34.5%. Also, in data set [1] (po, p.o. at 20 mg/kg), the MRT inf is 2.6 ± 0.8 h and the half-life was 2.3 h. For the same compound, the “overall health and behavior” value with ICR mice (50 mg kg^−1 p.o. daily for 30 d, ICR mice) was “no signs of toxicity”. Also, in the data set on ICR mice (setting [3]), the “body weight of male and female mice” value is “did not induce any significant abnormal changes”; the “histopathological evaluations of liver, kidneys, heart, spleen and lungs” value is “no significant differences”. Also, the therapeutic window entry with ICR mice (50 mg kg^−1 vs effective dose 5 mg kg^−1) was “at least tenfold”.
